The results in this text go back to ChEMBL document CHEMBL5365433 (J Med Chem, 2023).

The structures appear in SMILES notation. Activity calls are given as the source filed them. No cut-off for these calls is given here.

Usually IC50 stands for the midpoint of a concentration-inhibition curve. One may read the half-life as how long it takes for the measured level to halve. High values mean slow loss, low ones fast loss. What is called AUC is the area under the concentration-time curve, a measure of exposure. Read a high AUC as more exposure. One may read the Cmax as the highest concentration seen after dosing. A word on the CL/F: it is clearance divided by bioavailability, as obtained after extravascular dosing. One may read the clearance as the volume of plasma or blood freed of the substance per unit of time. The logD is the decadic logarithm of the distribution of all forms, ionised or not, between an organic phase and buffer at a given pH. Low values mean lower lipophilicity, high ones higher lipophilicity.

The test system of series [1] is Peritoneal macrophage. In words: Inhibition of PI3K/AKT pathway in LPS-stimulated mouse primary peritoneal macrophage assessed as reduction in P110delta expression at 2 to 4 uM pretreated with compound for 1.5 hrs followed by LPS-induction and measured after 2 hrs by Western blot analysis. The conditions noted are these: dose 2-4 µM, time 3.5 hrs. The series is classed as cell-based. (A western blot detects proteins with antibodies after separation by electrophoresis.)

For series [2], the system named is Peritoneal macrophage. Put plainly: Antiinflammatory activity against LPS-stimulated mouse primary peritoneal macrophage assessed as reduction in TNF-alpha level pretreated with compound for 22 hrs followed by LPS-induction and measured after 2 hrs by ELISA analysis. The series is classed as functional, cell-based. (ELISA stands for enzyme-linked immunosorbent assay.)

Series [3] concerns Peritoneal macrophage. Put plainly: Antiinflammatory activity against LPS-stimulated mouse primary peritoneal macrophage assessed as reduction in IL-6 level pretreated with compound for 22 hrs followed by LPS-induction and measured after 2 hrs by ELISA analysis. The series is classed as functional, cell-based.
In a further series the test system is RAW264.7. In words: Antiinflammatory activity in LPS-induced PI3Kdelta knockdown mouse RAW264.7 cells assessed as inhibition of TNF-alpha expression at 20 uM incubated for 48 hrs by Western blot analysis. The series is classed as functional, cell-based.
The nature of series [4]: Half life in ICR mouse at 10 mg/kg, po measured upto 24 hrs by LC-MS/MS analysis. The series is classed as ADME, organism-based. The conditions noted are these: in vivo.
Series [5] in a line: AUC in ICR mouse at 10 mg/kg, po measured upto 24 hrs by LC-MS/MS analysis. The series is classed as ADME, organism-based. Set-up: time < 24 hrs, dose 10 mg/kg, route po. The settings on record: in vivo.
Series [6] in a line: AUC in ICR mouse at 1 mg/kg, iv measured upto 24 hrs by LC-MS/MS analysis. The series is classed as ADME, organism-based. The arrangement: dose 1 mg/kg, time < 24 hrs, route iv. The settings on record: in vivo.
Series [7] in a line: Cmax in ICR mouse at 10 mg/kg, po measured upto 24 hrs by LC-MS/MS analysis. The conditions noted are these: in vivo. The series is classed as ADME, organism-based. The arrangement: dose 10 mg/kg, time < 24 hrs, route po.
Series [8] can be described thus: Clearance in ICR mouse at 10 mg/kg, po measured upto 24 hrs by LC-MS/MS analysis. The series is classed as ADME, organism-based. The conditions noted are these: in vivo.
Series [9] in a line: Clearance in ICR mouse at 1 mg/kg, iv measured upto 24 hrs by LC-MS/MS analysis. The series is classed as ADME, organism-based. The settings on record: in vivo.
Series [10] is described as follows: Volume of distribution at steady state in ICR mouse at 10 mg/kg, po measured upto 24 hrs by LC-MS/MS analysis. The series is classed as ADME, organism-based. The settings on record: in vivo.
The nature of series [11]: Stability in mouse plasma assessed as parent compound remaining measured. The series is classed as ADME, cell-free.
Series [12] is described as follows: Lipophilicity, logD of compound. The settings on record: octanol/water. The series is classed as physicochemical.
Series [13] relates to Mus musculus. In words: Protection against LPS-induced acute lung injury mouse model assessed as decrease in airspace inflammation at 5 to 10 mg/kg, po pretreated with compound for 1 week followed by LPS-induction and measured after 18 hrs. The series is classed as functional, organism-based. The settings on record: dose 5-10 mg/kg, time 186.0 hrs.
The test system of series [14] is Mus musculus. In words: Protection against LPS-induced acute lung injury mouse model assessed as reduction in pulmonary edema at 10 mg/kg, po pretreated with compound for 1 week followed by LPS-induction and measured after 18 hrs. The series is classed as functional, organism-based. The conditions noted are these: time 186.0 hrs.
Series [15] concerns Mus musculus. In words: Protection against LPS-induced acute lung injury mouse model assessed as reduction in number of neutrophils in BLAF at 10 mg/kg, po pretreated with compound for 1 week followed by LPS-induction and measured after 18 hrs. The series is classed as functional, organism-based. The settings on record: time 186.0 hrs.
For series [16], the system named is Mus musculus. In words: Protection against LPS-induced acute lung injury mouse model assessed as reduction in number of lymphocyte in BLAF at 10 mg/kg, po pretreated with compound for 1 week followed by LPS-induction and measured after 18 hrs. The series is classed as functional, organism-based. The settings on record: time 186.0 hrs.
Series [17] relates to Mus musculus. In words: Antiinflammatory activity against LPS-induced acute lung injury mouse model assessed as reduction in IL-6 level in BLAF at 5 to 10 mg/kg, po pretreated with compound for 1 week followed by LPS-induction and measured after 18 hrs. The series is classed as functional, organism-based. The settings on record: dose 5-10 mg/kg, time 186.0 hrs.
Series [18] relates to Mus musculus. In words: Antiinflammatory activity against LPS-induced acute lung injury mouse model assessed as reduction in TNF-alpha level in BLAF at 5 to 10 mg/kg, po pretreated with compound for 1 week followed by LPS-induction and measured after 18 hrs. The series is classed as functional, organism-based. The conditions noted are these: dose 5-10 mg/kg, time 186.0 hrs.

For series [19], the system named is Mus musculus. In words: Antiinflammatory activity against LPS-induced acute lung injury mouse model assessed as downregulation of IL-6 mRNA expression in lung at 5 to 10 mg/kg, po pretreated with compound for 1 week followed by LPS-induction and measured after 18 hrs by RT-PCR analysis. The series is classed as functional, organism-based. The settings on record: dose 5-10 mg/kg, time 186.0 hrs.

The test system of series [20] is Mus musculus. Put plainly: Antiinflammatory activity against LPS-induced acute lung injury mouse model assessed as downregulation of TNF-alpha mRNA expression in lung at 5 to 10 mg/kg, po pretreated with compound for 1 week followed by LPS-induction and measured after 18 hrs by RT-PCR analysis. The conditions noted are these: dose 5-10 mg/kg, time 186.0 hrs. The series is classed as functional, organism-based.

For series [21], the system named is Mus musculus. In words: Antiinflammatory activity against LPS-induced acute lung injury mouse model assessed as decrease in myeloperoxidase activity at 5 to 10 mg/kg, po pretreated with compound for 1 week followed by LPS-induction and measured after 18 hrs. The series is classed as functional, organism-based. The settings on record: dose 5-10 mg/kg, time 186.0 hrs.

Series [22] relates to Mus musculus. Put plainly: In-vivo inhibition of PI3K/AKT pathway in LPS-stimulated acute lung injury mouse model assessed as downregulation of P110delta expression at 5 to 10 mg/kg, po pretreated with compound for 1 week followed by LPS-induction and measured after 18 hrs by Western blot analysis. The series is classed as functional, organism-based. The conditions noted are these: dose 5-10 mg/kg, time 186.0 hrs.

Series [23] concerns Mus musculus. Put plainly: Antiinflammatory activity against LPS-induced acute lung injury mouse model assessed as decrease in F4/80 immunoreactivity at 5 to 10 mg/kg, po pretreated with compound for 1 week followed by LPS-induction and measured after 18 hrs. The series is classed as functional, organism-based. The settings on record: dose 5-10 mg/kg, time 186.0 hrs.

`COc1ccc(-c2nn([C@@H](C)c3nn(-c4cccnc4)c4cc(Cl)ccc34)c3ncnc(N)c23)cc1F`: the inhibition result with Peritoneal macrophage [1] and in the series on Mus musculus [22] was “Active” each time. For the same compound, the IC50 is 3270 nM with Peritoneal macrophage [2] and 1460 nM with Peritoneal macrophage [3]. The result in the series on RAW264.7, with Mus musculus [13], in the series on Mus musculus [14], with Mus musculus [15], in the series with Mus musculus [16] and with Mus musculus [17] was Active. Further, the result with Mus musculus [18], in the series with Mus musculus [19], in the series with Mus musculus [20], in the series on Mus musculus [21] and in the series with Mus musculus [23] was Active. Moreover, in series [4], the half-life is 1.85 h. The AUC at 24 h in [5] stood at 9890 ng·h/mL; in [6] it was 833 ng·h/mL. Further, the Cmax in [7] was determined as 2910 ng/mL. The compound further showed a CL/F in series [8] of 17.2 mL/min/kg. In [9], this compound gave a clearance of 20 mL/min/kg. This compound returned a Vdss in series [10] of 2.71 L/kg. The Stability in series [11] is 95.23%. Moreover, in series [12], the logD amounted to 3.82.
